Calls of active or inactive are those of the source. No cut-off for these calls is given here.
What was measured:
[1] = biological target: Serine/threonine-protein kinase MARK2 (Homo sapiens) (UniProt Q7KZI7); assay: PAR-1Balpha (h) Millipore kinase activity assay; conditions: Compound concentration 1.0 uM
[2] = biological target: T1, D(4) dopamine receptor (Homo sapiens) (UniProt P21917); assay: Inhibition of Dopamine D4.2 at 10 µM in the Eurofins-Panlabs radioligand binding assay (Eurofins_assay_219900); parameters: ligand concentration 0.5 nM; conditions: Compound concentration 10.0 uM
T1 sequence (whole entry): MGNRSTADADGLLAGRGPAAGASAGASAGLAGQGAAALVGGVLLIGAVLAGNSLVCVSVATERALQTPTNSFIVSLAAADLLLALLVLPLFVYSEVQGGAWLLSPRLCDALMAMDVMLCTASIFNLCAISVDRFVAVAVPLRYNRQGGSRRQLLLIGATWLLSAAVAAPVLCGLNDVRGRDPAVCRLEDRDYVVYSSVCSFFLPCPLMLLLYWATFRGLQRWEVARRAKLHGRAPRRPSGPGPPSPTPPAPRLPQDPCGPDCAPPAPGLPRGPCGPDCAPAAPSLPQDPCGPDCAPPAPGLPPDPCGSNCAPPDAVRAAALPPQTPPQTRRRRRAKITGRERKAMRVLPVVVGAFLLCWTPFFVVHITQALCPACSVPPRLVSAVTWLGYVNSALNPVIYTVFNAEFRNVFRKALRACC

[3] = biological target: Sodium-dependent serotonin transporter (Homo sapiens) (UniProt P31645); conditions: Compound concentration 10.0 uM
[4] = biological target: Protein-tyrosine kinase 2-beta (Homo sapiens) (UniProt Q14289); assay: Pyk2 (h) Millipore kinase activity assay; conditions: Compound concentration 1.0 uM
[5] = biological target: Tyrosine-protein kinase Fgr (Homo sapiens) (UniProt P09769); assay: Fgr (h) Millipore kinase activity assay; conditions: Compound concentration 1.0 uM
Sequence of Tyrosine-protein kinase Fgr (Homo sapiens) (P09769 2-529 limits assumed): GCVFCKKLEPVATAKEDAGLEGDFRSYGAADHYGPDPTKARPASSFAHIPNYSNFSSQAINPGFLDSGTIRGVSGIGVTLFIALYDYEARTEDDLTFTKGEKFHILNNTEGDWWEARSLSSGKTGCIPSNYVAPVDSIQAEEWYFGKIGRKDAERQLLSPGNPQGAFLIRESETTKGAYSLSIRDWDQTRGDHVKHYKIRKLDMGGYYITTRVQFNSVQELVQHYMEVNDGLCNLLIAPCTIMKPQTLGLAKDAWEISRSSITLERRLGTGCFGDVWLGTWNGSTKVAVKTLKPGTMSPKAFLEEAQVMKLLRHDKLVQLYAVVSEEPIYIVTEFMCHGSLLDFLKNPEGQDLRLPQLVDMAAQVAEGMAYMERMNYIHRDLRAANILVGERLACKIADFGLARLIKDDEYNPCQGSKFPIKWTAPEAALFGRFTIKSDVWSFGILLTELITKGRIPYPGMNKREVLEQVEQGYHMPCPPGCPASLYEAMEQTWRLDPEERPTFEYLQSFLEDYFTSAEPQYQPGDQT

Hs746T = assay: Cell proliferation with Hs746T cells; assay type: functional; conditions: Homo sapiens
[6] = biological target: Aurora kinase A (Homo sapiens) (UniProt O14965); assay: Aurora-A( h) Millipore kinase activity assay; conditions: Compound concentration 1.0 uM
[7] = biological target: L-type calcium channel, benzothiazepine site (Cav1.2 alpha-1C) (Homo sapiens, UniProt Q13936); assay: Inhibition of Calcium Channel L-Type, Benzothiazepine at 10 µM in the Eurofins-Panlabs radioligand binding assay (Eurofins_assay_214510); parameters: ligand concentration 2 nM, non-specific ligand with concentration 10 µM Diltiazem, incubation time 3h, incubation temperature 4 °C; conditions: male, Wistar, rat, rat whole brain preparation, probe [3H] Diltiazem; compound concentration 10 uM; target entry is the homologue from another species
Sequence of L-type calcium channel, benzothiazepine site (Cav1.2 alpha-1C) (Q13936 whole entry, the tested form may be a part): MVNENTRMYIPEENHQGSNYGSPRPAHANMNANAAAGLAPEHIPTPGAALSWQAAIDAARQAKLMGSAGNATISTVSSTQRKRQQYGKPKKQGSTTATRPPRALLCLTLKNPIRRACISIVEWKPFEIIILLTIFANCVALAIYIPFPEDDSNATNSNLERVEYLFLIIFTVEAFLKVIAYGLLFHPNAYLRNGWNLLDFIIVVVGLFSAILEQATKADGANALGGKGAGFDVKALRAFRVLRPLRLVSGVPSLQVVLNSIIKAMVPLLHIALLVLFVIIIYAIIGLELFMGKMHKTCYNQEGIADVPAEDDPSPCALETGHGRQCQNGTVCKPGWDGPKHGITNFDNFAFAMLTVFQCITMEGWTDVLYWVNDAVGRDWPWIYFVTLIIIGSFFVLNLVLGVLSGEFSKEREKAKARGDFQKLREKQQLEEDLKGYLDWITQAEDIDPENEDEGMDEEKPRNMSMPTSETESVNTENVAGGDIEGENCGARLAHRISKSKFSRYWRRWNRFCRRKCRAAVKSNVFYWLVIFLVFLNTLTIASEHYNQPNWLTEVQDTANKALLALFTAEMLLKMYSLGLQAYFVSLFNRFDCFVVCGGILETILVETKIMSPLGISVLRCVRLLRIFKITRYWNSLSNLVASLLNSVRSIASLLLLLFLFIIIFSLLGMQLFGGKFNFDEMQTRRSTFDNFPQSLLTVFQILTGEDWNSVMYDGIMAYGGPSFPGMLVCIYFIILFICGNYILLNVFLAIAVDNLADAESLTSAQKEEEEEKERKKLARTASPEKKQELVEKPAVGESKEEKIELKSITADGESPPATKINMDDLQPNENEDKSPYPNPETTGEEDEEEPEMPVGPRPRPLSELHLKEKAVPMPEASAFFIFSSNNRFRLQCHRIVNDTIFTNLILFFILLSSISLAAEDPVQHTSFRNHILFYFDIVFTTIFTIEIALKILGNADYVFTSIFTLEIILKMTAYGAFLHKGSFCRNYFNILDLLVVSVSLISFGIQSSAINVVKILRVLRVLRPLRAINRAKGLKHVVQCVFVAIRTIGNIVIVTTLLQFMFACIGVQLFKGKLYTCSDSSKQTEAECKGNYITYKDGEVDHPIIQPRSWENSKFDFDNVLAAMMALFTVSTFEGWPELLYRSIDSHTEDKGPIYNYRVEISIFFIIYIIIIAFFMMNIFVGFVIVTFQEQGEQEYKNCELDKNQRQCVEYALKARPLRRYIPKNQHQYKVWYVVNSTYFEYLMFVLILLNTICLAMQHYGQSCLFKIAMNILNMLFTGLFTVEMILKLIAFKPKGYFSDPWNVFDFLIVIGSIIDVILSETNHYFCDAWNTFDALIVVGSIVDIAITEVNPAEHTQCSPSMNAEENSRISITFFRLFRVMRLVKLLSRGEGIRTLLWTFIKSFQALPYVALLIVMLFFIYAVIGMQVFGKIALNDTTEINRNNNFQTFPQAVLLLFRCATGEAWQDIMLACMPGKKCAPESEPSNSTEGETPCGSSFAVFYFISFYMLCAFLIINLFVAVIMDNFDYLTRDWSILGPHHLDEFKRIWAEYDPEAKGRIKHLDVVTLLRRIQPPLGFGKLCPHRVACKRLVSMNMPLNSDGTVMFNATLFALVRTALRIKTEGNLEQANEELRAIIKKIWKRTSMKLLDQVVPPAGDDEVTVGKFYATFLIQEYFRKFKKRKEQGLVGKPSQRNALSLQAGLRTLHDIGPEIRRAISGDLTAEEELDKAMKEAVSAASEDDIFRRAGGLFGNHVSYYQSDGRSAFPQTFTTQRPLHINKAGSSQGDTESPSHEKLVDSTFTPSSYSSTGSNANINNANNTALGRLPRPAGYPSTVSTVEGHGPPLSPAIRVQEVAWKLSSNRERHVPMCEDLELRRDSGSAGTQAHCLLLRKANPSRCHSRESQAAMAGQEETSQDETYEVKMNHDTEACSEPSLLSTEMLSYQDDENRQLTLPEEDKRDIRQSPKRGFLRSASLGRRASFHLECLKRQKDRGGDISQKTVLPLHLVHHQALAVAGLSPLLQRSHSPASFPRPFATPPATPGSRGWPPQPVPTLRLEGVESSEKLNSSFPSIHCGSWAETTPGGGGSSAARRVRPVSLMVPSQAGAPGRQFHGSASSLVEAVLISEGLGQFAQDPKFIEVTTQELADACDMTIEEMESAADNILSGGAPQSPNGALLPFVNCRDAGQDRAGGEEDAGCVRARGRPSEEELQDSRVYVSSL

[8] = biological target: PAS domain-containing serine/threonine-protein kinase (Homo sapiens) (UniProt Q96RG2); assay: PASK (h) Millipore kinase activity assay; conditions: Compound concentration 1.0 uM
[9] = biological target: Cannabinoid receptor 1 (Homo sapiens) (UniProt P21554); conditions: Compound concentration 10.0 uM
[10] = biological target: Serine/threonine-protein kinase 10 (Homo sapiens) (UniProt O94804); assay: LOK (h) Millipore kinase activity assay; conditions: Compound concentration 1.0 uM
[11] = system: Epidermal growth factor receptor (Homo sapiens), P00533 [UNDEFINED MUTATION]; conditions: Compound concentration 1000.0 nM
[12] = biological target: Tyrosine-protein kinase receptor TYRO3 (Homo sapiens) (UniProt Q06418); conditions: Compound concentration 1000.0 nM
[13] = biological target: Citron Rho-interacting kinase (Homo sapiens) (UniProt O14578); conditions: Compound concentration 1000.0 nM
[14] = biological target: Tyrosine-protein kinase FRK (Homo sapiens) (UniProt P42685); conditions: Compound concentration 1000.0 nM
[15] = biological target: STE20/SPS1-related proline-alanine-rich protein kinase (Homo sapiens) (UniProt Q9UEW8); conditions: Compound concentration 1000.0 nM
[16] = biological target: Muscle, skeletal receptor tyrosine-protein kinase (Homo sapiens) (UniProt O15146); conditions: Compound concentration 1000.0 nM
[17] = biological target: Phosphatidylinositol 4-phosphate 3-kinase C2 domain-containing subunit beta (Homo sapiens) (UniProt O00750); conditions: Compound concentration 1000.0 nM
[18] = biological target: Aurora kinase B (Homo sapiens) (UniProt Q96GD4); conditions: Compound concentration 1000.0 nM
[19] = biological target: Serine/threonine-protein kinase Nek11 (Homo sapiens) (UniProt Q8NG66); conditions: Compound concentration 1000.0 nM
[20] = system: eIF-2-alpha kinase GCN2 (Homo sapiens), Q9P2K8 [S808G]; conditions: Compound concentration 1000.0 nM
Sequence of eIF-2-alpha kinase GCN2 (Homo sapiens), Q9P2K8 [S808G] (Q9P2K8 whole entry S808G): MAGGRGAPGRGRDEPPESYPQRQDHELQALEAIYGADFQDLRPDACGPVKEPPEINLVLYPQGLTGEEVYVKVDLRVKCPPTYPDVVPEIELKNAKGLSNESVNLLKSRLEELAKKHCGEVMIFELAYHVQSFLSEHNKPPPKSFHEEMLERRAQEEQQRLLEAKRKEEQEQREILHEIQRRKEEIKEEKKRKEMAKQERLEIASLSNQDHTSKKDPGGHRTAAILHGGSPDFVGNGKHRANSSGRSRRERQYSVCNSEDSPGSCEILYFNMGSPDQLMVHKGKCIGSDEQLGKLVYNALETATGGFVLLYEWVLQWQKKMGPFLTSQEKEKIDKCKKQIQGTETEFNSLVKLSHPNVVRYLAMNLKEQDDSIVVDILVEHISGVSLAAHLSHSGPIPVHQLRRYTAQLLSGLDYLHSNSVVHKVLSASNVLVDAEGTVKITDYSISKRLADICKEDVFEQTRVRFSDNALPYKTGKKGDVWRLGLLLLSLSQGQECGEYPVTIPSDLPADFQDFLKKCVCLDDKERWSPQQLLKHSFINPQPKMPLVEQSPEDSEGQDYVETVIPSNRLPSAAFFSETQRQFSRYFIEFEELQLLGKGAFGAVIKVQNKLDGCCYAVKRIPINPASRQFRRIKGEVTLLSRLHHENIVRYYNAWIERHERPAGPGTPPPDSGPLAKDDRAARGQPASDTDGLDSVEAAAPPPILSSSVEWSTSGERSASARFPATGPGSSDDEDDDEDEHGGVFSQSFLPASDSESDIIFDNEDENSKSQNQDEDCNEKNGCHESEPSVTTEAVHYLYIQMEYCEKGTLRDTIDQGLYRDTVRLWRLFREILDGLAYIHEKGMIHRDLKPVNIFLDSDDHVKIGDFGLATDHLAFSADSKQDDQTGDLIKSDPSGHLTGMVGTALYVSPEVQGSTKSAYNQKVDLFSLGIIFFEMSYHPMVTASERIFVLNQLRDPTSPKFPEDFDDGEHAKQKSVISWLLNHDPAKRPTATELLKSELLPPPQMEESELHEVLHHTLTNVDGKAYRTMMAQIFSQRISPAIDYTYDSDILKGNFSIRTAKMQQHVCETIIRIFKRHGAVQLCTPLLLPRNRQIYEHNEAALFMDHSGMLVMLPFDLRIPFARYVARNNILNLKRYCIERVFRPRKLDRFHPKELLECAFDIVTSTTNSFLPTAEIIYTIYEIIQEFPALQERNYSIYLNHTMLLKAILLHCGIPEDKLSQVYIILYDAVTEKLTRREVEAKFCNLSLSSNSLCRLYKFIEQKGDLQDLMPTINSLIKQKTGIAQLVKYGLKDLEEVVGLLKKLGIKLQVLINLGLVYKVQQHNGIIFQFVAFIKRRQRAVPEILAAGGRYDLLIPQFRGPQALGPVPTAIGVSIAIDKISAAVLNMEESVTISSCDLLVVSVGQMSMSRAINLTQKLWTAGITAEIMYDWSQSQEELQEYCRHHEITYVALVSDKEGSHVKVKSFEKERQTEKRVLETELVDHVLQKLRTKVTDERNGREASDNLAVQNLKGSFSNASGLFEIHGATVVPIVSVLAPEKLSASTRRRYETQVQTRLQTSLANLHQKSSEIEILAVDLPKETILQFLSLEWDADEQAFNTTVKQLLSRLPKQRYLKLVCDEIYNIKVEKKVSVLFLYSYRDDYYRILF

[21] = biological target: Activin receptor type-1 (Homo sapiens) (UniProt Q04771); conditions: Compound concentration 1000.0 nM
Sequence of Activin receptor type-1 (Homo sapiens) (Q04771 whole entry): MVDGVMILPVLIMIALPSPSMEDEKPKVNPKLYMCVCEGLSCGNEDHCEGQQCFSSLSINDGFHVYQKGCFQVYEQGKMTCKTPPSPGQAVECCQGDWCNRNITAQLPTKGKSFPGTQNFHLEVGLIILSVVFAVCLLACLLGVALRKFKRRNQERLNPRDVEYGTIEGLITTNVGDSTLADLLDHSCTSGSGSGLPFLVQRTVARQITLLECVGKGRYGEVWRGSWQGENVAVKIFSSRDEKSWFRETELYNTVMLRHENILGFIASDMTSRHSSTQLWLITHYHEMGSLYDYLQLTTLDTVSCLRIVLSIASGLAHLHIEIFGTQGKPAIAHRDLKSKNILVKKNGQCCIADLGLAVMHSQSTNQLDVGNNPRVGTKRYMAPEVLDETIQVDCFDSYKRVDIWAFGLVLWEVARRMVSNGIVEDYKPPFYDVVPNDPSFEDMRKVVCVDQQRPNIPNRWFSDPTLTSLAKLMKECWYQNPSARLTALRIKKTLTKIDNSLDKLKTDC

[22] = biological target: 5'-AMP-activated protein kinase catalytic subunit alpha-1 (Homo sapiens) (UniProt Q13131); conditions: Compound concentration 1000.0 nM
[23] = biological target: Phosphatidylinositol 4-phosphate 5-kinase type-1 gamma (Homo sapiens) (UniProt O60331); conditions: Compound concentration 1000.0 nM
[24] = biological target: Angiopoietin-1 receptor (Homo sapiens) (UniProt Q02763); conditions: Compound concentration 1000.0 nM
[25] = biological target: Calcium/calmodulin-dependent protein kinase type 1 (Homo sapiens) (UniProt Q14012); conditions: Compound concentration 1000.0 nM
[26] = biological target: Phosphorylase b kinase regulatory subunit alpha, liver isoform (Homo sapiens) (UniProt P46019); conditions: Compound concentration 1000.0 nM
[27] = biological target: Tyrosine-protein kinase Fgr (Homo sapiens) (UniProt P09769); conditions: Compound concentration 1000.0 nM
[28] = biological target: Calcium/calmodulin-dependent protein kinase kinase 1 (Homo sapiens) (UniProt Q8N5S9); conditions: Compound concentration 1000.0 nM
[29] = system: Receptor-type tyrosine-protein kinase FLT3 (Homo sapiens), P36888 [UNDEFINED MUTATION]; conditions: Compound concentration 1000.0 nM
[30] = biological target: Dual specificity tyrosine-phosphorylation-regulated kinase 1B (Homo sapiens) (UniProt Q9Y463); conditions: Compound concentration 1000.0 nM
[31] = biological target: Ribosomal protein S6 kinase alpha-5 (Homo sapiens) (UniProt O75582); conditions: Compound concentration 1000.0 nM
[32] = biological target: Tyrosine-protein kinase Tec (Homo sapiens) (UniProt P42680); conditions: Compound concentration 1000.0 nM
[33] = system: Phosphatidylinositol 4,5-bisphosphate 3-kinase catalytic subunit alpha isoform (Homo sapiens), P42336 [C420R]; conditions: Compound concentration 1000.0 nM
[34] = biological target: Dual specificity testis-specific protein kinase 1 (Homo sapiens) (UniProt Q15569); conditions: Compound concentration 1000.0 nM
[35] = biological target: Casein kinase I isoform alpha-like (Homo sapiens) (UniProt Q8N752); conditions: Compound concentration 1000.0 nM
[36] = biological target: Activin receptor type-1-like (Homo sapiens) (UniProt P37023); conditions: Compound concentration 1000.0 nM
[37] = biological target: Proto-oncogene tyrosine-protein kinase Src (Homo sapiens) (UniProt P12931); conditions: Compound concentration 1000.0 nM

**Q.** Which inhibition [1] does the source give for CC1=C(C#N)C(c2ccc3[nH]nc(C)c3c2)C(C#N)=C(C)N1 [BAY-474] here?
**A.** 26%

**Q.** And the inhibition [2]?
**A.** -2%

**Q.** What about the inhibition [3] of the same molecule?
**A.** 9%

**Q.** What about the inhibition [4] of the same molecule?
**A.** 17%

**Q.** What about the inhibition [5] of the same molecule?
**A.** 14%

**Q.** What about the IC90 (Hs746T) of the same molecule?
**A.** 56 nM (active)

**Q.** And the inhibition [6]?
**A.** 40%

**Q.** What about the inhibition at 3 h, 10 µM [7] of the same molecule?
**A.** -9% (not active)

**Q.** What about the inhibition [8] of the same molecule?
**A.** 19%

**Q.** What about the inhibition [9] of the same molecule?
**A.** 17%

**Q.** And the inhibition [10]?
**A.** 26%

**Q.** What does the source list for CC1=C(C#N)[C@@H](c2ccc3[nH]nc(C)c3c2)C(C#N)=C(c2ccc(Cl)cc2)N1 [BAY-827]?
**A.** residual activity [11]: 80.4%; residual activity [12]: 74.4%; residual activity [13]: 100%; residual activity [14]: 100%; residual activity [15]: 90.7%; residual activity [16]: 100%; residual activity [17]: 100%; residual activity [18]: 82.9%; residual activity [19]: 62.4%; residual activity [20]: 89.9%; residual activity [21]: 100%; residual activity [22]: 100%; residual activity [23]: 99.5%; residual activity [24]: 74.5%; residual activity [25]: 100%; residual activity [26]: 100%; residual activity [27]: 100%; residual activity [28]: 93.7%; residual activity [29]: 93.9%; residual activity [30]: 50.1%; residual activity [31]: 100%; residual activity [32]: 100%; residual activity [33]: 100%; residual activity [34]: 100%; residual activity [35]: 100%; residual activity [36]: 79%; residual activity [37]: 100%

— ChEMBL document CHEMBL4507263, “Data for DCP probe BAY-474” (2021)
